Laboratory results as given in patent US11891359B2, “Prenylated psilocybin derivatives and methods of using” (ENVERIC B[…] INC., priority 2021, dated 2024).

Assay: Solubility in the one-pot biocatalysis reaction mixture
Type: physicochemical
Settings: undiluted one-pot biocatalysis reaction mixture (5 mL), 30 °C, aqueous buffer; undiluted 5 mL reaction (25 mM Tris-HCl pH 8.0); dilution to 40 mL and pH 6 increased solubility
Protocol: Referring further to FIG. 13A, Step 1 was conducted in vitro using biocatalytic conversion. Three recombinant enzymes, the prenyl transferase PriB (SEQ.ID NO: 24), in addition to PhoNxt (SEQ.ID NO: 30), and IPKmt (SEQ.ID NO: 32) were individually expressed in E. coli using the following plasmids, respectively: pET26b(+)-PriB, pET28a(+)-IPKmt, and pET21(+)-PhoNxt. Prenyl transferase PriB (SEQ.ID NO: 24) catalyzes the stereospecific 6-prenylation of tryptophan with dimethylallyl pyrophosphate (DMAPP) as the prenyl-donor. A cDNA encoding PriB enzyme (SEQ.ID NO: 23) was synthesized and cloned into pET26b(+) vector by service provider GenScript (www.genscript.com) in-frame with a vector-encoded, N-terminal HIS epitope tag. PhoNxt (SEQ.ID NO: 30) is a non-specific acid phosphatase, while IPKmt (SEQ.ID NO: 32) is an isopentenyl phosphate kinase. Together, these two enzymes can use dimethylallyl alcohol (DMAOH) (www.sigmaaldrich.com) as the starting substrate to produce DMAPP, which in turn is a required co-substrate for PriB. cDNAs encoding IPkmt (SEQ.ID NO: 31) and PhoNxt (SEQ.ID NO: 29) were synthesized and cloned into E.coli expression vectors pET28a(+) and pET21(+), respectively using the Clonal Genes service of Twist Bioscience. Specifically, IPKmt was cloned between the NdeI and XhoI sites of pET28a(+) thus enabling an in-frame, N-terminal HIS tag in the corresponding protein. […]

CC(C)=CCc1ccc2c(C[C@H](N)C(=O)O)c[nH]c2c1 [6-dimethylallyl-tryptophan]
solubility: < 1100 µg/mL
